# Measured values published in patent US12251417B2, “Antimicrobial compounds from the genus Delftia” (Ministry of Health, State of Israel, priority 2017, dated 2025).
# Square brackets hold non-standard residues; d marks the D form. Peptide text beside a SMILES is read from it. * marks the point of attachment. ξ: configuration not given here. NH(1-OH-2-oxopiperidin-3-yl) = O=C1C(N*)CCCN1O; ξOrn(N(OH)CHO) = NC(CCCN(O)C=O)C(=O)O; ξAsp(3ξ-OH) = NC(C(=O)O)C(O)C(=O)O; X1 = CC(N)C(O)C(C)C(=O)*; Dhb = C/C=C(\N)C(=O)O
# Assays:
# [1] = tested on: Deftia strain 2189; experiment: Delftibactin A as carrier of gallium; type: cell-based, Delftia; details: with gallium
# From the text: FIG. 36 is a graph illustrating that Delftibactin A can be used as a carrier of inhibitory antimicrobial agents such as gallium to inhibit harmful bacterial strains such as Deftia strain 2189.
# [2] = tested on: vancomycin resistant enterococci (VRE); experiment: Inhibition of VRE by Delftibactin A alone and with antibiotics; type: cell-based
# From the text: FIG. 33 is a graph illustrating that Delftibactin A inhibits Vancomycin Resistant Enterococci (VRE).
# [3] = tested on: C. albicans ATCC64124; experiment: Broth microdilution MIC; type: cell-based; details: lowest concentration that inhibited ≥50% of growth after overnight incubation
# Description: Deftibactin A was serially diluted in DMSO with a dilution factor of 2, to provide 10 concentrations for all the assays. The MIC is defined as the lowest concentration of compound that inhibited ≥90% or ≥50% of the growth of a microorganism after overnight incubation. Genedata Screener software (Genedata, Inc., Basel, Switzerland) was used to analyze the data and to determine the MICs and calculate the RZ′ factor, to estimate the robustness of the assays. Delftibactin A was tested on two different days and in triplicate.
# Broth microdilution was used to determine the minimal inhibitory concentration (MIC) according to the standards of the Clinical and Laboratory Standards Institute (CLSI) or the European Committee on Antimicrobial Susceptibility Testing (EUCAST). Cation-adjusted Mueller-Hinton broth (CAMHB) was used with inoculum of about 5×10^5 cfu ml^−1 of the tested pathogen. Direct suspension of overnight colonies into CAMHB was used for the generation of the bacterial suspension. The tested inhibited compound or supernatant was used in doubling dilutions in 50 μl of CAMHB and inoculated with an equal amount of bacteria in the broth.
# [4] = tested on: THLE2; experiment: MTT cytotoxicity assay; type: cell-based, human; details: 24/72 hours
# From the text: (§1) MTT (3-(4,5-Dimethylthiazol-2-yl)-2,5-diphenyltetrazolium bromide) is a colorimetric assay for measuring the activity of cellular enzymes that reduce the tetrazolium dye, MTT, to its insoluble formazan, giving a purple color. This assay measure mitochondrial metabolic activity via NAD(P)Hdependent cellular oxidoreductase enzymes and may, under defined conditions, reflect the number of viable cells. The cells used in this study were: Hep G2 (HB-8065) is a perpetual cell line which was derived from the liver tissue of a person with a well-differentiated hepatocellular carcinoma. THLE-2 is a perpetual cell line which was derived from the liver epithelial cells of an adult human transformed with SV40 large T antigen.
# (§2) The assay: cell concentration treatment 24 hours: Cells were seeded at a concentration of 2×10^4 cells/well in 200 μl culture medium and incubated at 37° C. in 5% CO2. Cell concentration treatment 72 hours: Cells were seeded at a concentration of 1×10^4 cells/well in 200 μl culture medium and incubated at 37° C. in 5% CO2. After 24 hours, the medium was replaced with a final volume of 200 μl and 1 μl of compound (dilution 1/200) and controls were added to the plates. […]
# (§3) When extracts/compounds and controls were added, plates were incubated at 37° C. in 5% CO2 incubator for 24/72 hours. […] The absorbance was measured using a multireader Victor™ at a wavelength of 570 nm.
# [5] = tested on: HepG2; experiment: MTT cytotoxicity assay; type: cell-based, human; details: 24/72 hours
# From the text: as §1, §2, §3
smiles,measurement,setting,value
C/C=C(\NC(=O)CNC(=O)C(NC(=O)C(NC(=O)C(C)C(O)C(C)N)C(O)C(=O)O)C(C)O)C(=O)NC(CCCN(O)C=O)C(=O)NC(CO)C(=O)NC(CCCN=C(N)N)C(=O)NC1CCCN(O)C1=O (stereo not shown) [Delftibactin A] (X1-[ξAsp(3ξ-OH)]TG[Dhb][ξOrn(N(OH)CHO)]SR-{NH(1-OH-2-oxopiperidin-3-yl)}; configuration not given here),inhibition of Deftia strain 2189 as carrier of gallium,[1],inhibit
same,inhibition of vancomycin resistant enterococci (VRE),[2],inhibits
same,combined antimicrobial effect with clarithromycin on VRE,[2]; Delftibactin A 10 μM,additive combined antimicrobial effect
same,combined antimicrobial effect with rifampicin on VRE,[2]; Delftibactin A 10 μM,additive combined antimicrobial effect
same,MIC50,[3],16 µg/mL
same,cytotoxic activity (MTT),[4],not have cytotoxic activity
same,cytotoxic activity (MTT),[5],not have cytotoxic activity
